From ChEMBL document CHEMBL3044862, “Quantitative Structure-Activity Relationships of Fluazinam and Related Fungicidal N-Phenylpyridinamines” (1995)
≈ marks a conversion by molar mass, not a printed value.

Tested on: Botrytis cinerea
Experiment: Fungicidal activity against Botryotinia fuckeliana inoculated on compound pre-treated one-leaf stage cucumber seedlings assessed as prevention of leaf lesions measured 3 days after inoculation
Type: functional

| Structure (SMILES) | MIC [mg/L] |
| --- | --- |
| Oc1c(Cl)cc(Nc2ncc(C(F)(F)F)cc2Cl)cc1Cl | > 500 |
| N#CSc1c(C(F)(F)F)cc([N+](=O)[O-])c(Nc2ncc(C(F)(F)F)cc2Cl)c1[N+](=O)[O-] | > 500 |
| C[S+]([O-])c1c(C(F)(F)F)cc([N+](=O)[O-])c(Nc2ncc(C(F)(F)F)cc2Cl)c1[N+](=O)[O-] (stereo unspecified) | > 500 |
| CCOc1c(C(F)(F)F)cc([N+](=O)[O-])c(Nc2ncc(C(F)(F)F)cc2Cl)c1[N+](=O)[O-] | > 500 |
| CCCOc1c(C(F)(F)F)cc([N+](=O)[O-])c(Nc2ncc(C(F)(F)F)cc2Cl)c1[N+](=O)[O-] | > 500 |
| CCCCOc1c(C(F)(F)F)cc([N+](=O)[O-])c(Nc2ncc(C(F)(F)F)cc2Cl)c1[N+](=O)[O-] | > 500 |
| CC(C)Oc1c(C(F)(F)F)cc([N+](=O)[O-])c(Nc2ncc(C(F)(F)F)cc2Cl)c1[N+](=O)[O-] | > 500 |
| CC(C)COc1c(C(F)(F)F)cc([N+](=O)[O-])c(Nc2ncc(C(F)(F)F)cc2Cl)c1[N+](=O)[O-] | > 500 |
| O=[N+]([O-])c1cc(C(F)(F)F)c(OCC(F)(F)C(F)F)c([N+](=O)[O-])c1Nc1ncc(C(F)(F)F)cc1Cl | > 500 |
| O=[N+]([O-])c1cc(C(F)(F)F)c(OCC(F)(F)F)c([N+](=O)[O-])c1Nc1ncc(C(F)(F)F)cc1Cl | > 500 |
| O=[N+]([O-])c1cc(C(F)(F)F)c(OCCCl)c([N+](=O)[O-])c1Nc1ncc(C(F)(F)F)cc1Cl | > 500 |
| O=[N+]([O-])c1cc(C(F)(F)F)c(Oc2ccccc2C(F)(F)F)c([N+](=O)[O-])c1Nc1ncc(C(F)(F)F)cc1Cl | > 500 |
| O=[N+]([O-])c1cc(C(F)(F)F)c(Oc2cccc(C(F)(F)F)c2)c([N+](=O)[O-])c1Nc1ncc(C(F)(F)F)cc1Cl | > 500 |
| O=[N+]([O-])c1cc(C(F)(F)F)c(Oc2ccc(C(F)(F)F)cc2)c([N+](=O)[O-])c1Nc1ncc(C(F)(F)F)cc1Cl | > 500 |
| O=[N+]([O-])c1cc(C(F)(F)F)c(Oc2ccc(C(F)(F)F)cc2Cl)c([N+](=O)[O-])c1Nc1ncc(C(F)(F)F)cc1Cl | > 500 |
| CSc1c(C(F)(F)F)cc([N+](=O)[O-])c(Nc2ncc(C(F)(F)F)cc2Cl)c1[N+](=O)[O-] | > 500 |
| FC(F)(F)c1cnc(Nc2cc(Cl)c(Oc3ncc(C(F)(F)F)cc3Cl)c(Cl)c2)c(Cl)c1 | > 500 |
| CS(=O)(=O)c1cc([N+](=O)[O-])c(Nc2ncc(C(F)(F)F)cc2Cl)c([N+](=O)[O-])c1Cl | > 500 |
| CCN(CC)S(=O)(=O)c1cc([N+](=O)[O-])c(Nc2ncc(C(F)(F)F)cc2Cl)c([N+](=O)[O-])c1Cl | > 500 |
| O=[N+]([O-])c1cc(C(F)(F)F)cc([N+](=O)[O-])c1Nc1ncc(C(F)(F)F)cc1Cl | > 500 |
| O=[N+]([O-])c1cc(C(F)(F)F)c(F)c([N+](=O)[O-])c1Nc1ncc(C(F)(F)F)cc1Cl | > 500 |
| O=[N+]([O-])c1cc(C(F)(F)F)c(Br)c([N+](=O)[O-])c1Nc1ncc(C(F)(F)F)cc1Cl | < 16 |

| Structure (SMILES) | MIC [mg/L] |
| --- | --- |
| O=[N+]([O-])c1cc(C(F)(F)F)c(I)c([N+](=O)[O-])c1Nc1ncc(C(F)(F)F)cc1Cl | > 500 |
| Nc1c(C(F)(F)F)cc([N+](=O)[O-])c(Nc2ncc(C(F)(F)F)cc2Cl)c1[N+](=O)[O-] | > 500 |
| N#CNc1c(C(F)(F)F)cc([N+](=O)[O-])c(Nc2ncc(C(F)(F)F)cc2Cl)c1[N+](=O)[O-] | > 500 |
| O=[N+]([O-])c1cc(C(F)(F)F)c(O)c([N+](=O)[O-])c1Nc1ncc(C(F)(F)F)cc1Cl | > 500 |
| COc1c(C(F)(F)F)cc([N+](=O)[O-])c(Nc2ncc(C(F)(F)F)cc2Cl)c1[N+](=O)[O-] | > 500 |
| Cc1cc([N+](=O)[O-])c(Nc2ncc(C(F)(F)F)cc2Cl)c([N+](=O)[O-])c1Cl | > 500 |
| Cc1c(Cl)c([N+](=O)[O-])c(Nc2ncc(C(F)(F)F)cc2Cl)c([N+](=O)[O-])c1Cl | > 500 |
| O=[N+]([O-])c1cc(C(F)(F)F)c(Cl)cc1Nc1ncc(C(F)(F)F)cc1Cl | > 500 |
| Nc1cc(C(F)(F)F)c(Cl)c(N)c1Nc1ncc(C(F)(F)F)cc1Cl | > 500 |
| Nc1c(Cl)c(C(F)(F)F)cc([N+](=O)[O-])c1Nc1ncc(C(F)(F)F)cc1Cl | > 500 |
| O=[N+]([O-])c1c(Cl)c(C(F)(F)F)c(Cl)c([N+](=O)[O-])c1Nc1ncc(C(F)(F)F)cc1Cl | 250 (≈ 500 µM) |
| N#Cc1cc([N+](=O)[O-])c(Nc2ncc(C(F)(F)F)cc2Cl)c([N+](=O)[O-])c1Cl | > 500 |
| COC(=O)c1cc([N+](=O)[O-])c(Nc2ncc(C(F)(F)F)cc2Cl)c([N+](=O)[O-])c1Cl | > 500 |
| O=[N+]([O-])c1c(Cl)cc(Nc2ncc(C(F)(F)F)cc2Cl)c([N+](=O)[O-])c1Cl | > 500 |
| O=[N+]([O-])c1cc(C(F)(F)F)c(Nc2ncc(C(F)(F)F)cc2Cl)c([N+](=O)[O-])c1Cl | < 16 |
| CCCSP(=O)(OCC)Oc1c(Cl)cc(Nc2ncc(C(F)(F)F)cc2Cl)cc1Cl (stereo unspecified) | > 500 |
| CCOP(=O)(Oc1c(Cl)cc(Nc2ncc(C(F)(F)F)cc2Cl)cc1Cl)SC(C)CC (stereo unspecified) | > 500 |
| O=[N+]([O-])c1cc(C(F)(F)F)c(Cl)c([N+](=O)[O-])c1Nc1ncc(Cl)cc1Br | > 500 |
| O=[N+]([O-])c1cc(C(F)(F)F)c(Cl)c([N+](=O)[O-])c1Nc1ncc(Br)cc1Br | > 500 |
| O=[N+]([O-])c1cc(C(F)(F)F)c(Cl)c([N+](=O)[O-])c1Nc1ncc(C(F)(F)F)cc1Br | < 16 |
| O=[N+]([O-])c1cc(C(F)(F)F)c(Cl)c([N+](=O)[O-])c1Nc1ncccc1C(F)(F)F | > 500 |
| O=[N+]([O-])c1cc(C(F)(F)F)c(Cl)c([N+](=O)[O-])c1Nc1ncc(Cl)cc1C(F)(F)F | 16 (≈ 34.4 µM) |

| Structure (SMILES) | MIC [mg/L] |
| --- | --- |
| O=[N+]([O-])c1cc(C(F)(F)F)c(Cl)c([N+](=O)[O-])c1Nc1ncc(Br)cc1C(F)(F)F | 63 (≈ 124 µM) |
| O=[N+]([O-])c1cc(C(F)(F)F)c(Cl)c([N+](=O)[O-])c1Nc1ncc(C(F)(F)F)cc1C(F)(F)F | < 16 |
| FC(F)(F)c1cnc(Nc2cc(Cl)cc(Cl)c2)c(Cl)c1 | > 500 |
| O=[N+]([O-])c1c(Cl)cc(Cl)c([N+](=O)[O-])c1Nc1ncc(C(F)(F)F)cc1Cl | > 500 |
| Fc1c(Cl)cc(Nc2ncc(C(F)(F)F)cc2Cl)c(F)c1Cl | > 500 |
| N#Cc1c(Cl)c(Cl)c(Cl)c(C#N)c1Nc1ncc(C(F)(F)F)cc1Cl | > 500 |
| O=[N+]([O-])c1cc(C(F)(F)F)c(Cl)c([N+](=O)[O-])c1Nc1ccc(C(F)(F)F)cn1 | > 500 |
| O=[N+]([O-])c1cc(C(F)(F)F)c(Cl)c([N+](=O)[O-])c1Nc1cc(C(F)(F)F)c(Cl)cn1 | 16 (≈ 34.4 µM) |
| O=[N+]([O-])c1cc(C(F)(F)F)c(Cl)c([N+](=O)[O-])c1Nc1nc(C(F)(F)F)c(Cl)cc1Cl | < 16 |
| O=[N+]([O-])c1cc(C(F)(F)F)c(Cl)c([N+](=O)[O-])c1Nc1ncc(Cl)cc1Cl | > 500 |
| O=[N+]([O-])c1cc(C(F)(F)F)c(Cl)c([N+](=O)[O-])c1Nc1ncc(Br)cc1Cl | > 500 |
| O=[N+]([O-])c1cc(C(F)(F)F)c(Cl)c([N+](=O)[O-])c1Nc1nc(F)c(C(F)(F)F)cc1Cl | < 16 |
| O=[N+]([O-])c1cc(C(F)(F)F)c(Cl)c([N+](=O)[O-])c1Nc1nc(Cl)c(C(F)(F)F)cc1Cl | < 16 |
| CN(C)c1nc(Nc2c([N+](=O)[O-])cc(C(F)(F)F)c(Cl)c2[N+](=O)[O-])c(Cl)cc1C(F)(F)F | > 500 |
| CNc1nc(Nc2c([N+](=O)[O-])cc(C(F)(F)F)c(Cl)c2[N+](=O)[O-])c(Cl)cc1C(F)(F)F | > 500 |
| N#Cc1cnc(Nc2c([N+](=O)[O-])cc(C(F)(F)F)c(Cl)c2[N+](=O)[O-])c(Cl)c1 | 63 (≈ 149 µM) |
| NC(=O)c1cnc(Nc2c([N+](=O)[O-])cc(C(F)(F)F)c(Cl)c2[N+](=O)[O-])c(Cl)c1 | > 500 |
| CCOC(=O)c1cnc(Nc2c([N+](=O)[O-])cc(C(F)(F)F)c(Cl)c2[N+](=O)[O-])c(Cl)c1 | > 500 |
| COC(=O)c1cnc(Nc2c([N+](=O)[O-])cc(C(F)(F)F)c(Cl)c2[N+](=O)[O-])c(Cl)c1 | > 500 |
| O=C(O)c1cnc(Nc2c([N+](=O)[O-])cc(C(F)(F)F)c(Cl)c2[N+](=O)[O-])c(Cl)c1 | > 500 |
| Cc1c(Cl)cnc(Nc2c([N+](=O)[O-])cc(C(F)(F)F)c(Cl)c2[N+](=O)[O-])c1Cl | > 500 |
| O=[N+]([O-])c1cc(C(F)(F)F)c(Cl)c([N+](=O)[O-])c1Nc1ncc(C(F)(F)F)cc1Cl [FLUAZINAM] | < 16 |
